Experimental data as given in US10167262B2, “Herbicidal substituted 3-arylpyrazoles” (FMC CORPORATION, priority 2014, dated 2019).
Like-named read-outs stand apart in the source and are kept apart here.

Legend:
Format in all cases: in vivo
[1] = system: barnyardgrass (Echinochloa crus-galli); assay: Test A pre-/postemergence greenhouse herbicide test, visual injury rating 0-100; settings: for pest or weed control at 500 g/ha: 500 g ai/ha
In short: (§1)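 Test chemicals in a non-phytotoxic solvent/surfactant blend were sprayed onto loam–sand soil after planting (pre) and onto 2–10 cm seedlings at one to two leaves (post). Greenhouse hold approx. 10 days; injury then judged visually.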

corn (Zea mays) = assay: as above; settings: for plant injury at 500 g/ha: 500 g ai/ha
In short: as §1

[2] = system: giant foxtail (Setaria faberii); assay: as above; settings: for pest or weed control at 500 g/ha: 500 g ai/ha
In short: as §1

[3] = system: large (Lg) crabgrass (Digitaria sanguinalis); assay: as above; settings: for pest or weed control at 500 g/ha: 500 g ai/ha
In short: as §1

[4] = system: morningglory (Ipomoea spp.); assay: as above; settings: for pest or weed control at 500 g/ha: 500 g ai/ha
In short: as §1

[5] = system: pigweed (Amaranthus retroflexus); assay: as above; settings: for pest or weed control at 500 g/ha: 500 g ai/ha
In short: as §1

[6] = system: velvetleaf (Abutilon theophrasti); assay: as above; settings: Abutilon theophrasti, 240 h, read-out: Plant response rating (0 to 100 scale), Velvetleaf; for pest or weed control at 500 g/ha: 500 g ai/ha
In short: as §1

[7] = system: wheat (Triticum aestivum); assay: as above; settings: for plant injury at 500 g/ha: 500 g ai/ha
In short: as §1

[8] = system: Italian ryegrass (Lolium multiflorum); assay: Test C pre-/postemergence greenhouse test, plant response rating 0-100; settings: Lolium multiflorum; for pest or weed control at 62 g/ha: 62 g ai/ha; for pest or weed control at 125 g/ha: 125 g ai/ha; for pest or weed control at 250 g/ha: 250 g ai/ha; for pest or weed control at 500 g/ha: 500 g ai/ha
Text: (§2) Seeds of plant species selected from blackgrass (Alopecurus myosuroides), Italian ryegrass (Lolium multiflorum), winter wheat (Triticum aestivum), galium (catchweed bedstraw, Galium aparine), corn (Zea mays), large (Lg) crabgrass (Digitaria sanguinalis), giant foxtail (Setaria faberii), johnsongrass (Sorghum halepense), lambsquarters (Chenopodium album), morningglory (Ipomoea coccinea), yellow nutsedge (Cyperus esculentus), pigweed (Amaranthus retroflexus), ragweed (common ragweed, Ambrosia elatior), soybean (Glycine max), barnyardgrass (Echinochloa crus-galli), oilseed rape (Brassica napus), waterhemp (common waterhemp, Amaranthus rudis), and velvetleaf (Abutilon theophrasti) were planted into a blend of loam soil and sand and treated preemergence with test chemicals formulated in a non-phytotoxic solvent mixture which included a surfactant.
(§3) At the same time, plants selected from these crop and weed species and also winter barley (Hordeum vulgare), bermudagrass (Cynodon dactylon), downy bromegrass (Bromus tectorum), canarygrass (Phalaris minor), cocklebur (common cocklebur, Xanthium strumarium), woolly cupgrass (Eriochloa villosa), deadnettle (henbit deadnettle, Lamium amplexicaule), green foxtail (Setaria viridis), goosegrass (Eleusine indica), surinam grass (Brachiaria decumbens), windgrass (Apera spica-venti), chickweed (common chickweed, Stellaria media), kochia (Kochia scoparia), and wild oat (Avena fatua), were planted in pots containing Redi-Earth® planting medium (Scotts Company, 14111 Scottslawn Road, Marysville, Ohio 43041) comprising spaghnum peat moss, vermiculite, wetting agent and starter nutrients and treated with postemergence applications of test chemicals formulated in the same manner. Plants ranged in height from 2 to 18 cm (1- to 4-leaf stage) for postemergence treatments. Treated plants and controls were maintained in a greenhouse for 13 to 15 days, after which time all species were compared to controls and visually evaluated. Plant response ratings, summarized in Table C, are based on a scale of 0 to 100 where 0 is no effect and 100 is complete control. A dash (-) response means no test result.

[9] = system: galium (catchweed bedstraw, Galium aparine); assay: as above; settings: Galium; for pest or weed control at 62 g/ha: 62 g ai/ha; for pest or weed control at 125 g/ha: 125 g ai/ha; for pest or weed control at 250 g/ha: 250 g ai/ha; for pest or weed control at 500 g/ha: 500 g ai/ha
Text: as §2, §3

[10] = system: morningglory (Ipomoea coccinea); assay: as above; settings: Ipomoea; for pest or weed control at 62 g/ha: 62 g ai/ha; for pest or weed control at 125 g/ha: 125 g ai/ha; for pest or weed control at 250 g/ha: 250 g ai/ha; for pest or weed control at 500 g/ha: 500 g ai/ha
Text: as §2, §3

[11] = system: ragweed (common ragweed, Ambrosia elatior); assay: as above; settings: Ambrosia artemisiifolia; for pest or weed control at 62 g/ha: 62 g ai/ha; for pest or weed control at 125 g/ha: 125 g ai/ha; for pest or weed control at 250 g/ha: 250 g ai/ha
Text: as §2, §3

[12] = system: velvetleaf (Abutilon theophrasti); assay: as above; settings: Abutilon theophrasti; for pest or weed control at 62 g/ha: 62 g ai/ha; for pest or weed control at 125 g/ha: 125 g ai/ha; for pest or weed control at 250 g/ha: 250 g ai/ha; for pest or weed control at 500 g/ha: 500 g ai/ha
Text: as §2, §3

[13] = post-emergence, Postemergence, read-out: Plant response rating (0 to 100), Ryegrass, Italian
[14] = post-emergence, Postemergence, scale 0 to 100
[15] = pre-emergence, Preemergence, read-out: Plant response rating, Ryegrass, Italian
[16] = post-emergence, Postemergence, read-out: Plant response rating (0 to 100), Galium
[17] = pre-emergence, Preemergence, read-out: Plant response rating, Galium
[18] = post-emergence, Postemergence, read-out: Plant response rating (0 to 100), Morningglory
[19] = pre-emergence, Preemergence, read-out: Plant response rating, Morningglory
[20] = post-emergence, Postemergence, read-out: Plant response rating (0 to 100), Ragweed
[21] = pre-emergence, Preemergence, read-out: Plant response rating, Ragweed
[22] = post-emergence, Postemergence, read-out: Plant response rating (0 to 100), Velvetleaf
[23] = pre-emergence, Preemergence, read-out: Plant response rating, Velvetleaf

## COC(OC)(c1ccccc1)c1c[nH]nc1-c1cc(Cl)cc(Cl)c1 [Compound 13, 3-(3,5-dichlorophenyl)-4-(dimethoxyphenylmethyl)-1H-pyrazole]
[1]; Echinochloa crus-galli, post-emergence, 240 h, Postemergence, 125 g ai/ha, read-out: Plant response rating (0 to 100 scale), Barnyardgrass
  pest or weed control at 125 g/ha: 0%
[1]; Echinochloa crus-galli, post-emergence, 240 h, Postemergence, read-out: Plant response rating (0 to 100 scale), Barnyardgrass
  pest or weed control at 500 g/ha: 0%
[1]; Echinochloa crus-galli, pre-emergence, 240 h, Preemergence, read-out: Plant response rating (0 to 100 scale), Barnyardgrass
  pest or weed control at 500 g/ha: 0%
[1]; Preemergence, 125 g ai/ha
  Barnyardgrass plant response rating (0 = no effect, 100 = complete control): 0
Corn (Zea mays); Preemergence, 125 g ai/ha
  Corn plant response rating (0 = no effect, 100 = complete control): 0
Corn (Zea mays); Zea mays, post-emergence, 240 h, Postemergence, 125 g ai/ha, read-out: Plant response rating (0 to 100 scale), Corn
  plant injury at 125 g/ha: 0%
Corn (Zea mays); Zea mays, post-emergence, 240 h, Postemergence, read-out: Plant response rating (0 to 100 scale), Corn
  plant injury at 500 g/ha: 0%
Corn (Zea mays); Zea mays, pre-emergence, 240 h, Preemergence, read-out: Plant response rating (0 to 100 scale), Corn
  plant injury at 500 g/ha: 0%
[2]; Preemergence, 125 g ai/ha
  Foxtail, Giant plant response rating (0 = no effect, 100 = complete control): 0
[2]; Setaria faberi, post-emergence, 240 h, Postemergence, 125 g ai/ha, read-out: Plant response rating (0 to 100 scale), Foxtail, Giant
  pest or weed control at 125 g/ha: 0%
[2]; Setaria faberi, post-emergence, 240 h, Postemergence, read-out: Plant response rating (0 to 100 scale), Foxtail, Giant
  pest or weed control at 500 g/ha: 0%
[2]; Setaria faberi, pre-emergence, 240 h, Preemergence, read-out: Plant response rating (0 to 100 scale), Foxtail, Giant
  pest or weed control at 500 g/ha: 0%
[3]; Digitaria sanguinalis, post-emergence, 240 h, Postemergence, 125 g ai/ha, read-out: Plant response rating (0 to 100 scale), Crabgrass, Large
  pest or weed control at 125 g/ha: 0%
[3]; Digitaria sanguinalis, post-emergence, 240 h, Postemergence, read-out: Plant response rating (0 to 100 scale), Crabgrass, Large
  pest or weed control at 500 g/ha: 0%
[3]; Digitaria sanguinalis, pre-emergence, 240 h, Preemergence, read-out: Plant response rating (0 to 100 scale), Crabgrass, Large
  pest or weed control at 500 g/ha: 0%
[3]; Preemergence, 125 g ai/ha
  Crabgrass, Large plant response rating (0 = no effect, 100 = complete control): 0
[4]; Ipomoea, post-emergence, 240 h, Postemergence, 125 g ai/ha, read-out: Plant response rating (0 to 100 scale), Morningglory
  pest or weed control at 125 g/ha: 0%
[4]; Ipomoea, post-emergence, 240 h, Postemergence, read-out: Plant response rating (0 to 100 scale), Morningglory
  pest or weed control at 500 g/ha: 0%
[4]; Ipomoea, pre-emergence, 240 h, Preemergence, read-out: Plant response rating (0 to 100 scale), Morningglory
  pest or weed control at 500 g/ha: 0%
[4]; Preemergence, 125 g ai/ha
  Morningglory plant response rating (0 = no effect, 100 = complete control): 0
[5]; Amaranthus retroflexus, post-emergence, 240 h, Postemergence, 125 g ai/ha, read-out: Plant response rating (0 to 100 scale), Pigweed
  pest or weed control at 125 g/ha: 90%
[5]; Amaranthus retroflexus, post-emergence, 240 h, Postemergence, read-out: Plant response rating (0 to 100 scale), Pigweed
  pest or weed control at 500 g/ha: 100%
[5]; Amaranthus retroflexus, pre-emergence, 240 h, Preemergence, read-out: Plant response rating (0 to 100 scale), Pigweed
  pest or weed control at 500 g/ha: 100%
[5]; Preemergence, 125 g ai/ha
  Pigweed plant response rating (0 = no effect, 100 = complete control): 70
[6]; post-emergence, Postemergence, 125 g ai/ha
  pest or weed control at 125 g/ha: 80%
[6]; post-emergence, Postemergence
  pest or weed control at 500 g/ha: 90%
[6]; pre-emergence, Preemergence
  pest or weed control at 500 g/ha: 70%
[7]; Preemergence, 125 g ai/ha
  Wheat plant response rating (0 = no effect, 100 = complete control): 0
[7]; Triticum aestivum, post-emergence, 240 h, Postemergence, 125 g ai/ha, read-out: Plant response rating (0 to 100 scale), Wheat
  plant injury at 125 g/ha: 0%
[7]; Triticum aestivum, post-emergence, 240 h, Postemergence, read-out: Plant response rating (0 to 100 scale), Wheat
  plant injury at 500 g/ha: 0%
[7]; Triticum aestivum, pre-emergence, 240 h, Preemergence, read-out: Plant response rating (0 to 100 scale), Wheat
  plant injury at 500 g/ha: 0%
[8]; [13]
  pest or weed control at 62 g/ha: 0%
  pest or weed control at 125 g/ha: 0%
[8]; [14]
  pest or weed control at 250 g/ha: 0%
  pest or weed control at 500 g/ha: 0%
[8]; [15]
  pest or weed control at 62 g/ha: 0%
  pest or weed control at 125 g/ha: 0%
[8]; pre-emergence, Preemergence
  pest or weed control at 250 g/ha: 0%
  pest or weed control at 500 g/ha: 0%
[9]; [16]
  pest or weed control at 62 g/ha: 0%
  pest or weed control at 125 g/ha: 0%
[9]; [14]
  pest or weed control at 250 g/ha: 40%
  pest or weed control at 500 g/ha: 10%
[9]; [17]
  pest or weed control at 62 g/ha: 60%
  pest or weed control at 125 g/ha: 0%
[9]; pre-emergence, Preemergence
  pest or weed control at 250 g/ha: 30%
  pest or weed control at 500 g/ha: 0%
[10]; [18]
  pest or weed control at 62 g/ha: 0%
  pest or weed control at 125 g/ha: 0%
[10]; [14]
  pest or weed control at 250 g/ha: 10%
  pest or weed control at 500 g/ha: 10%
[10]; [19]
  pest or weed control at 62 g/ha: 0%
  pest or weed control at 125 g/ha: 0%
[10]; pre-emergence, Preemergence
  pest or weed control at 250 g/ha: 0%
  pest or weed control at 500 g/ha: 0%
[11]; [20]
  pest or weed control at 62 g/ha: 50%
  pest or weed control at 125 g/ha: 50%
[11]; [14]
  pest or weed control at 250 g/ha: 75%
[11]; post-emergence, Postemergence, 500 g ai/ha, scale 0 to 100
  pest or weed control at 500 g/ha: 80%
[11]; [21]
  pest or weed control at 62 g/ha: 85%
  pest or weed control at 125 g/ha: 100%
[11]; pre-emergence, Preemergence
  pest or weed control at 250 g/ha: 100%
[12]; [22]
  pest or weed control at 62 g/ha: 70%
  pest or weed control at 125 g/ha: 75%
[12]; [14]
  pest or weed control at 250 g/ha: 85%
  pest or weed control at 500 g/ha: 80%
[12]; [23]
  pest or weed control at 62 g/ha: 60%
  pest or weed control at 125 g/ha: 85%
[12]; pre-emergence, Preemergence
  pest or weed control at 250 g/ha: 75%
  pest or weed control at 500 g/ha: 100%
